Reference: US11447535B2, “GLP-1 analogues” (Sun Pharmaceutical Industries Limited, priority 2018, dated 2022)
Marks after values point to notes of the source that are not given here.

How the values were obtained:
[1] = test system: db/db mice (diabetic mouse model); test: Separate db/db diabetic mouse study, q2d*15 up to day 28, recovery period day 29 to day 45; type: in vivo; conditions: for Blood Glucose AUC (Day 30-37) % Change vs Control / Blood Glucose AUC (Day 30-37) (mg/dL*days) Mean / Blood Glucose AUC (Day 38-45) % Change vs Control / Blood Glucose AUC (Day 38-45) (mg/dL*days) Mean: recovery period
Protocol: The study was performed in similar manner as above on diabetic mouse model. The animals were divided into three treatment groups—a diabetic control group, a test group and a semaglutide treatment group. The representative compounds of the present disclosure, Compound 1, Compound 13 and Compound 16, were injected subcutaneously at 3.04 or 6.078 nM dose (every alternate day up to day 28 (q2d*15). The same dosage regimen was administered in semaglutide treatment group. Measurements of blood glucose levels and body weight were done daily. % HbA1c, Insulin was measured on Day 0, day 14 and day 29. Cumulative food intake and body weight change was calculated on day 14 and 29. % HbA1c, Insulin data was analyzed by two way ANOVA followed by Bonferroni's posttests using PRISM (Graph Pad version 5.03). Whereas Blood Glucose AUC, Body weight change and Cumulative food intake data was analyzed by one way ANOVA followed by Bonferroni's posttests using PRISM (Graph Pad version 5.03). From day 29 to day 45, animals were kept on recovery period during which no drug treatment was given. Blood Glucose and Body weight was measured during this period. On day 45, Body weight Changes, % HbA1c, Insulin was measured.

SD rats = test: Oral glucose tolerance test (OGTT) in rats; single injection; 1 mg/kg; type: in vivo; set-up: Change in AUC (mg/dL*min): unit not given here; conditions: for Blood Glucose AUC (mg/dL*min) Mean: Exp. 2; for Change in AUC (mg/dL*min): Exp. 2, vs control group
Protocol: (§1) Animals were divided into three groups—a normal control group, a test group and a third semaglutide group, with 4 animals in each group. The animals were fasted for 12 hours before initiation of OGTT. To the test group animals, the Compound 1 was injected subcutaneously at 1 mg/kg dose. To the semaglutide group, a dose of 1 mg/kg was injected subcutaneously. After 22 hrs, 166 hrs and 334 hrs of subcutaneous injection of test drug or semaglutide, blood glucose was measured with blood glucose meter (time 0 measurements). All the animals were then given 2 g/kg of glucose solution orally. Blood glucose was measured at 20, 40, 60, 90 and 120 minutes following glucose challenge. Body weight and food intake was recorded. Blood glucose data was analyzed using Two way ANOVA followed by Bonferroni posttests using PRISM (Graph Pad version 5.03). Data of Blood glucose AUC0-120 min, was analyzed using t test.
as §1, with “animals,” for “animals, the”, “1, Compound 13 and Compound 16 were” for “1 was”, “compound” for “drug”

[2] = Food intake and body weight recorded in the rat OGTT study; type: in vivo, rats; conditions: 1 mg/Kg; for Body Weight Change (%) Mean / Food Consumption (g) Mean: Exp. 2
Protocol: as §1
as §1, with “animals,” for “animals, the”, “1, Compound 13 and Compound 16 were” for “1 was”, “compound” for “drug”

[3] = earlier dose 3.04 nM (3.4 nM given for Compound 16)
[4] = recovery study, day 45, earlier dose 3.04 nM
[5] = recovery study, day 45, earlier dose 6.078 nM (6.0788 nM given for Compound 13)
[6] = OGTT, 1 mg/Kg dose, after 24 hrs

Q: Which “Blood Glucose AUC (Day 0-29) % Change Vs Control” value ([1]; 3.04 nM, q2d*15) does the source give for “Compound 16: SEQ ID NO: 05, acylated with Moiety D (HXXXGTFTSDVSSYLXGQAAXEFXAWLVRGRGXX; lipidated side chain; (2)..(2) Xaa = Aib; (3)..(3) Xaa = absent.; (4)..(4) Xaa = Glu.; (16)..(16) Xaa = Glu.; (21)..(21) Lys is substituted; (24)..(24) Xaa is Ile.; (33)..(33) Xaa is Leu.; (34)..(34) Xaa is absent.)” here?
A: −44.54%

Q: What about the “Blood Glucose AUC (Day 0-29) (mg/dL*days) Mean” value ([1]; 3.04 nM, q2d*15) of the same substance?
A: 9399.0*** mg/dL*days

Q: What about the “Body Weight Change Day 29, % Change vs Day 0 Mean” value ([1]; 3.04 nM, q2d*15) of the same substance?
A: −1.4%

Q: What about the “Cumulative Food Intake (g) Day 0-29 Mean” value ([1]; 3.04 nM, q2d*15) of the same substance?
A: 77.4 g

Q: What about the “Blood Glucose AUC (Day 0-29) % Change Vs Control” value ([1]; 6.078 nM, q2d*15) of the same substance?
A: −52.29%

Q: And the “Blood Glucose AUC (Day 0-29) (mg/dL*days) Mean” value ([1]; 6.078 nM, q2d*15)?
A: 8086.1***## mg/dL*days

Q: And the “Body Weight Change Day 29, % Change vs Day 0 Mean” value ([1]; 6.078 nM, q2d*15)?
A: −5.5%

Q: And the “Cumulative Food Intake (g) Day 0-29 Mean” value ([1]; 6.078 nM, q2d*15)?
A: 66.7 g

Q: And the “% HbA1C Mean” value ([1]; Day 0, 3.04 nM, q2d*15)?
A: 7.74%

Q: And the “Insulin (ng/mL) Mean” value ([1]; Day 0, 3.04 nM, q2d*15)?
A: 13.9 ng/mL

Q: And the “% HbA1C Mean” value ([1]; Day 0, 6.078 nM, q2d*15)?
A: 7.83%

Q: And the “Insulin (ng/mL) Mean” value ([1]; Day 0, 6.078 nM, q2d*15)?
A: 21.8 ng/mL

Q: What about the “% HbA1C Mean” value ([1]; Day 14, 3.04 nM, q2d*15) of the same substance?
A: 5.67 ***# %

Q: And the “Insulin (ng/mL) Mean” value ([1]; Day 14, 3.04 nM, q2d*15)?
A: 50.8* ng/mL

Q: And the “% HbA1C Mean” value ([1]; Day 14, 6.078 nM, q2d*15)?
A: 5.64 ***# %

Q: What about the “Insulin (ng/mL) Mean” value ([1]; Day 14, 6.078 nM, q2d*15) of the same substance?
A: 58.1** ng/mL

Q: And the “% HbA1C Mean” value ([1]; Day 29, 3.04 nM, q2d*15)?
A: 5.33 ***# %

Q: And the “Insulin (ng/mL) Mean” value ([1]; Day 29, 3.04 nM, q2d*15)?
A: 53.8** ng/mL

Q: What about the “% HbA1C Mean” value ([1]; Day 29, 6.078 nM, q2d*15) of the same substance?
A: 5.16 ***# %

Q: And the “Insulin (ng/mL) Mean” value ([1]; Day 29, 6.078 nM, q2d*15)?
A: 68.2*** ng/mL

Q: What about the “HbA1c, blood glucose, food consumption and body weight vs control” value ([1]; about 3 nM and 6 nM dose) of the same substance?
A: significant reduction

Q: What about the “Blood Glucose AUC (Day 30-37) % Change vs Control” value [1, 3] of the same substance?
A: −32.62%

Q: And the “Blood Glucose AUC (Day 30-37) (mg/dL*days) Mean” value [1, 3]?
A: 2420.0** mg/dL*days

Q: And the “Blood Glucose AUC (Day 38-45) % Change vs Control” value [1, 3]?
A: −8.82%

Q: And the “Blood Glucose AUC (Day 38-45) (mg/dL*days) Mean” value [1, 3]?
A: 3284.0* mg/dL*days

Q: And the “Blood Glucose AUC (Day 30-37) % Change vs Control” value ([1]; earlier dose 6.078 nM)?
A: −39.65%

Q: And the “Blood Glucose AUC (Day 30-37) (mg/dL*days) Mean” value ([1]; earlier dose 6.078 nM)?
A: 2167.7*** mg/dL*days

Q: What about the “Blood Glucose AUC (Day 38-45) % Change vs Control” value ([1]; earlier dose 6.078 nM) of the same substance?
A: −12.97%

Q: And the “Blood Glucose AUC (Day 38-45) (mg/dL*days) Mean” value ([1]; earlier dose 6.078 nM)?
A: 3134.7** mg/dL*days

Q: And the “% HbA1C Mean” value [1, 4]?
A: 7.1* %

Q: What about the “Delta HbA1C vs. DC” value [1, 4] of the same substance?
A: −1.4

Q: What about the “Insulin (ng/mL) Mean” value [1, 4] of the same substance?
A: 15.5 ng/mL

Q: What about the “% HbA1C Mean” value [1, 5] of the same substance?
A: 7.2* %

Q: What about the “Delta HbA1C vs. DC” value [1, 5] of the same substance?
A: −1.3

Q: What about the “Insulin (ng/mL) Mean” value [1, 5] of the same substance?
A: 18.4 ng/mL

Q: And the “Body Weight % Change vs Day 45 Mean” value ([1]; recovery study, earlier dose 3.04 nM)?
A: 6.1%

Q: And the “Body Weight % Change vs Day 45 Mean” value ([1]; recovery study, earlier dose 6.078 nM (6.0788 nM given for Compound 13))?
A: 5.7%

Q: And the “Blood Glucose AUC (mg/dL*min) Mean” value (SD rats; OGTT, 1 mg/Kg, 22 hr)?
A: 1646 mg·min/dL

Q: What about the “Change in AUC (mg/dL*min)” value (SD rats; OGTT, 1 mg/Kg, 22 hr) of the same substance?
A: −80.7

Q: What about the “Blood Glucose AUC (mg/dL*min) Mean” value (SD rats; OGTT, 1 mg/Kg, 168 hr) of the same substance?
A: 4283 mg·min/dL

Q: And the “Change in AUC (mg/dL*min)” value (SD rats; OGTT, 1 mg/Kg, 168 hr)?
A: −57.6

Q: And the “Blood Glucose AUC (mg/dL*min) Mean” value (SD rats; OGTT, 1 mg/Kg, 336 hr)?
A: 8295.0 mg·min/dL

Q: And the “Change in AUC (mg/dL*min)” value (SD rats; OGTT, 1 mg/Kg, 336 hr)?
A: −2.3

Q: And the “reduction in blood glucose AUC” value (SD rats; after 168 hrs of injection, 1 mg/kg)?
A: about 60%

Q: And the “Body Weight Change (%) Mean” value ([2]; 48 h)?
A: −10.7%

Q: What about the “Food Consumption (g) Mean” value ([2]; 48 h) of the same substance?
A: 5.9 g

Q: What about the “Body Weight Change (%) Mean” value ([2]; 154 h) of the same substance?
A: −7.0%

Q: And the “Body Weight Change (%) Mean” value ([2]; 324 h)?
A: −4.3%

Q: And the “Food Consumption (g) Mean” value ([2]; 324 h)?
A: 104.3 g

Q: What about the “food consumed vs animals administered with semaglutide” value ([2]; text on Table 8) of the same substance?
A: consumed significantly less food

Q: And the “lowering of body weight” value ([2]; text on Table 8)?
A: substantial lowering of body weight

Q: Which “% Glucose Reduction (Blood Glucose AUC0-120 min)” value (SD rats; [6]) does the source give for “Compound 7: SEQ ID NO: 05, Moiety B; liraglutide with 2nd amino acid Ala replaced with Aib and additional 32nd amino acid Leu (HXXXGTFTSDVSSYLXGQAAXEFXAWLVRGRGXX; (2)..(2) Xaa = Aib; (3)..(3) Xaa = absent.; (4)..(4) Xaa = Glu.; (16)..(16) Xaa = Glu.; (21)..(21) Lys is substituted; (24)..(24) Xaa is Ile.; (33)..(33) Xaa is Leu.; (34)..(34) Xaa is absent.)” here?
A: 71.9%

Q: What about the “Comp/std Liraglutide (ratio of % glucose reduction)” value (SD rats; [6]) of the same substance?
A: 1.73

Q: And the “blood glucose lowering effect vs liraglutide” value (SD rats; OGTT, 1 mg/Kg, at 24 hrs)?
A: significantly higher than liraglutide
